Test results published in US10150759B2, “1,4-pyridone bicycic heteroaryl compounds” (Epizyme, Inc., priority 2012, dated 2018).
pIC50: −log10 of the molar value.

What was measured:
[1] = biological target: wild-type EZH2 (PRC2 enzyme) (Homo sapiens (Human), UniProt Q15910); test: PRC2 enzyme assay on peptide substrate (wild-type EZH2); type: biochemical; details: wild-type PRC2 4 nM, H3K27me0 peptide substrate, 3H-SAM; read-out: WT EZH2 IC50
Text: S-adenosylmethionine (SAM), S-adenosylhomocyteine (SAH), bicine, KCl, Tween20, dimethylsulfoxide (DMSO) and bovine skin gelatin (BSG) were purchased from Sigma-Aldrich at the highest level of purity possible. Dithiothreitol (DTT) was purchased from EMD. ^3H-SAM was purchased from American Radiolabeled Chemicals with a specific activity of 80 Ci/mmol. 384-well streptavidin Flashplates were purchased from PerkinElmer.
Peptides representative of human histone H3 residues 21-44 containing either an unmodified lysine 27 (H3K27me0) or dimethylated lysine 27 (H3K27me2) were synthesized with a C-terminal G(K-biotin) linker-affinity tag motif and a C-terminal amide cap by 21st Century Biochemicals. The peptides were high-performance liquid chromatography (HPLC) purified to greater than 95% purity and confirmed by liquid chromatography mass spectrometry (LC-MS). The sequences are listed below.
Human PRC2 enzymes were purified as 4-component enzyme complexes co-expressed in Spodoptera frugiperda (sf9) cells using a baculovirus expression system. The subunits expressed were wild-type EZH2 (NM_004456) or EZH2 Y641F, N, H, S or C mutants generated from the wild-type EZH2 construct, EED (NM_003797), Suz12 (NM_015355) and RbAp48 (NM_005610). The EED subunit contained an N-terminal FLAG tag that was used to purify the entire 4-component complex from sf9 cell lysates. The purity of the complexes met or exceeded 95% as determined by SDS-PAGE and Agilent Bioanalyzer analysis. Concentrations of enzyme stock concentrations (generally 0.3-1.0 mg/mL) was determined using a Bradford assay against a bovine serum albumin (BSA) standard.
The assays were all performed in a buffer consisting of 20 mM bicine (pH=7.6), 0.5 mM DTT, 0.005% BSG and 0.002% Tween20, prepared on the day of use. […] The plates were then read in a PerkinElmer TopCount platereader to measure the quantity of ^3H-labeled peptide bound to the Flashplate surface, measured as disintegrations per minute (dpm) or alternatively, referred to as counts per minute (cpm). […]

[2] = system: H3K27me3 in WSU-DLCL2 cells; test: WSU-DLCL2 methylation assay (H3K27me3 ELISA); type: cell-based; details: Homo sapiens, WSUDLCL2, 96 hours incubation, H3K27me3 normalized to total H3
Text: WSU-DLCL2 suspension cells were purchased from DSMZ (German Collection of Microorganisms and Cell Cultures, Braunschweig, Germany). RPMI/Glutamax Medium, Penicillin-Streptomycin, Heat Inactivated Fetal Bovine Serum, and D-PBS were purchased from Life Technologies, Grand Island, N.Y., USA. Extraction Buffer and Neutralization Buffer (5×) were purchased from Active Motif, Carlsbad, Calif., USA. Rabbit anti-Histone H3 antibody was purchased from Abcam, Cambridge, Mass., USA. Rabbit anti-H3K27me3 and HRP-conjugated anti-rabbit-IgG were purchased from Cell Signaling Technology, Danvers, Mass., USA. TMB “Super Sensitive” substrate was sourced from BioFX Laboratories, Owings Mills, Md., USA. IgG-free Bovine Serum Albumin was purchased from Jackson ImmunoResearch, West Grove, Pa., USA. PBS with Tween (10×PBST) was purchased from KPL, Gaithersburg, Md., USA. Sulfuric Acid was purchased from Ricca Chemical, Arlington, Tex., USA. Immulon ELISA plates were purchased from Thermo, Rochester, N.Y., USA. V-bottom cell culture plates were purchased from Corning Inc., Corning, N.Y., USA. V-bottom polypropylene plates were purchased from Greiner Bio-One, Monroe, N.C., USA.
WSU-DLCL2 suspension cells were maintained in growth medium (RPMI 1640 supplemented with 10% v/v heat inactivated fetal bovine serum and 100 units/mL penicillin-streptomycin) and cultured at 37° C. under 5% CO2. […]

Chain of wild-type EZH2 (PRC2 enzyme) (Q15910 other isoform, or with tags, fused parts or gaps): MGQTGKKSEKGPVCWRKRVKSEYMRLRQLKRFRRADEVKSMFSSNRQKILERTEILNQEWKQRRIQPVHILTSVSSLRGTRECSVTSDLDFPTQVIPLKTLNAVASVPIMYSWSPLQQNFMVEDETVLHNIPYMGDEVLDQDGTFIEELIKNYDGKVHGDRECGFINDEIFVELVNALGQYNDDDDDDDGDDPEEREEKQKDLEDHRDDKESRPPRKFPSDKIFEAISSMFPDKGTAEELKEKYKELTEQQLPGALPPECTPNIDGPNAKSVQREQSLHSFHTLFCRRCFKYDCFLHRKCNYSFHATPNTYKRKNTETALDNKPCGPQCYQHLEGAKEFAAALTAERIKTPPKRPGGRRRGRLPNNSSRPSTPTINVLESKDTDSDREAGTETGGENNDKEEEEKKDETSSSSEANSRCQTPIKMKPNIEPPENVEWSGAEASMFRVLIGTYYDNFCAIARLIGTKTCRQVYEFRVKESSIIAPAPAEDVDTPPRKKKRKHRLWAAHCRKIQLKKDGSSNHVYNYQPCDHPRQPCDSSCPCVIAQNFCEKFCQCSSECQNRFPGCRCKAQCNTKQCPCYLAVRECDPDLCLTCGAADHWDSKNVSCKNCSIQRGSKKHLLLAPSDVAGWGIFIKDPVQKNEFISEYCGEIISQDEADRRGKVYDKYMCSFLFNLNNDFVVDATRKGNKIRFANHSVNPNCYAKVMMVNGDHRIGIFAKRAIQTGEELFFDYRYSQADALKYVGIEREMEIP
Chain of wild-type EZH2 (PRC2 enzyme) (O75530 whole entry partner): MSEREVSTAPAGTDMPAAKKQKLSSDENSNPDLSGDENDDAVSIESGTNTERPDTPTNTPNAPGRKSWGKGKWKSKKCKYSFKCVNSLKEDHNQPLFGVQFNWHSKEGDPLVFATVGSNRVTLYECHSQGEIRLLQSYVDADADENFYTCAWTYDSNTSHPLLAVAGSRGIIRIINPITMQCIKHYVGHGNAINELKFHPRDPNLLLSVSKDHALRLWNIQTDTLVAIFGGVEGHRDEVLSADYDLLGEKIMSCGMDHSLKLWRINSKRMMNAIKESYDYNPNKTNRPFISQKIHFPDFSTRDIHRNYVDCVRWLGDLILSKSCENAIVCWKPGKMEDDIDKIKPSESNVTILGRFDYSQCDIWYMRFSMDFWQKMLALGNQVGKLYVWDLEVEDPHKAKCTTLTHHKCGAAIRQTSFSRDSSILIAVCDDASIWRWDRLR
Chain of wild-type EZH2 (PRC2 enzyme) (Q15022 whole entry partner): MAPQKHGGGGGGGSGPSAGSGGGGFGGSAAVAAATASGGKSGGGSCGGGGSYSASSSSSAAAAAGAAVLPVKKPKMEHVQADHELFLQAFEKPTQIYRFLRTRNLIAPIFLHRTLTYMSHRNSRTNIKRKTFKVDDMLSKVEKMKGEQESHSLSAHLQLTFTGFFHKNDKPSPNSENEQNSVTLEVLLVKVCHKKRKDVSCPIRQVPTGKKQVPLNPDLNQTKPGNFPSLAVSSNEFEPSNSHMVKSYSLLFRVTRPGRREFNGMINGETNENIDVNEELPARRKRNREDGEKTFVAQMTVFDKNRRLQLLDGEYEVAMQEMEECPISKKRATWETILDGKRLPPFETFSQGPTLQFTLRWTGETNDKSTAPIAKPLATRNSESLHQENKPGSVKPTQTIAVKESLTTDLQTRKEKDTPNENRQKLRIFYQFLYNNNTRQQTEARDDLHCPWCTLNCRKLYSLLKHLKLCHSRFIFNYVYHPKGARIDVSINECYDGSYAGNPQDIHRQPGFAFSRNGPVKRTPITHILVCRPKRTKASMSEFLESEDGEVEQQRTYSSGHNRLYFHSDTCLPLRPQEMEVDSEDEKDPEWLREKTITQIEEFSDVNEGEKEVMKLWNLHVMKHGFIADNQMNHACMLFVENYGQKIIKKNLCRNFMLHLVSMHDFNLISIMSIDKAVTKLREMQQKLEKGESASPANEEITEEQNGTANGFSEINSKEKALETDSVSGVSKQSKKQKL
Chain of wild-type EZH2 (PRC2 enzyme) (Q09028 whole entry partner): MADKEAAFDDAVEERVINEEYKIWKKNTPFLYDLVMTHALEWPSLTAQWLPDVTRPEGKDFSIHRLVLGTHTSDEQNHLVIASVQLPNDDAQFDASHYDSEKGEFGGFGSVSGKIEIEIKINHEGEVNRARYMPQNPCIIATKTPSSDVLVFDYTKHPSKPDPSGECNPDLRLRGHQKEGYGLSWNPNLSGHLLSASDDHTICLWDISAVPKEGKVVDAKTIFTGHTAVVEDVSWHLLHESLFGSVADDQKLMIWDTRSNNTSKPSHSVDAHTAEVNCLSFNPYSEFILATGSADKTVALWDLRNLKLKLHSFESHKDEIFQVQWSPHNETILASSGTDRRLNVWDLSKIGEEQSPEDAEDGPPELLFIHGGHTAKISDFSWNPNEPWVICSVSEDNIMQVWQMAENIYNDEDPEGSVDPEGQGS

| SMILES | pIC50 [1] | pIC50 [2] |
| --- | --- | --- |
| Cc1cc(=O)c(CNC(=O)c2cc(C3CC(C)(C)NC(C)(C)C3)nc3c2cnn3C(C)C)c(C)[nH]1 [Compound 2, N-((2,6-dimethyl-4-oxo-1,4-dihydropyridin-3-yl)methyl)-1-isopropyl-6-(2,2,6,6-tetramethylpiperidin-4-yl)-1H-pyrazolo [3,4-b]pyridine-4-carboxamide] | 5.15 | – |
| CCC(C)n1cc(C)c2c(C(=O)NCc3c(C)[nH]c(C)cc3=O)cc(-c3ccc(N4CCNCC4)nc3)cc21 (stereo not shown) [Compound 4, 1-(sec-butyl)-N-((2,6-dimethyl-4-oxo-1,4-dihydropyridin-3-yl)methyl)-3-methyl-6-(6-(piperazin-1-yl)pyridin-3-yl)-1H-indole-4-carboxamide] | 7.55 | 4.92 |
| Cc1cc(=O)c(CNC(=O)c2cc(C3=CC(C)(C)NC(C)(C)C3)nc3c2cnn3C(C)C)c(C)[nH]1 [Compound 1, N-((2,6-dimethyl-4-oxo-1,4-dihydropyridin-3-yl)methyl)-1-isopropyl-6-(2,2,6,6-tetramethyl-1,2,3,6-tetrahydropyridin-4-yl)-1H-pyrazolo[3,4-b]pyridine-4-carboxamide] | 5.18 | – |
